A value given as a limit tells only on which side of the number the result lay.

The target in one assay is T1, IL-17A/A (Homo sapiens, UniProt Q16552).
T1 sequence (Q16552 24-155): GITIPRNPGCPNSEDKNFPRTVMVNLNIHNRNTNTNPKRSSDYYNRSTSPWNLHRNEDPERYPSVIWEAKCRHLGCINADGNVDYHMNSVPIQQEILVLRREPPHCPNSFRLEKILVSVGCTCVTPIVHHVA
Kind of assay: IL-17A/A HEK-Blue Cell Assay. The assay is classed as cell-based. Conditions: HEK-Blue IL-17 reporter cells, IL-17A/A stimulation, 20 hours, SEAP readout; read-out: IL17 AA HEK-5 pIC50 (converted). The procedure: (§1) The HEK-Blue IL-17 reporter cell line (Fisher #NC1408637) was used for cell-based IL-17A/A inhibition assays. Cells were grown and prepared for assays according to the manufacturer's instructions. This cell line consists of HEK 293 cells that were designed to expressed IL-17R^A, IL-17R^C, and the ActI adapter molecule, the combination of which, when stimulated by IL-17A/A activates a NFκB promoter and drives expression of a recombinant Secreted Alkaline Phosphatase (SEAP) protein. Media from the cells is then added to a development reagent (Quanti-Blue Substrate, Fisher #NC9711613), and read at A630.
Compounds were titrated in DMSO, with a top final compound concentration of 10 uM and added to the cells immediately before adding IL-17A/A (Genscript #Z03228). The cells, compound, and IL-17A/A were then incubated for 20 hours before media was removed for SEAP analysis. The resulting inhibition curve was then analyzed using a Dotmatics screening protocol, and IC50 values were determined using a 4-parameter nonlinear fit. DMSO was added to a universal final concentration of 0.1% to optimize background. IL-17A/A inhibition data is provided in Table 1 for selected compounds.
Take `CCn1nccc1C(=O)N[C@H](C(=O)Nc1ccc([C@H](C)[C@@H](NC(=O)C(C)OCCOC)C(=O)N2CCN(C)CC2)cc1F)C(C1CC1)C1CC1` (single isomer, unassigned) [Compound 315]: the IC50 is 0.01 to 0.1 µM.

`CCn1nccc1C(=O)N[C@H](C(=O)Nc1ccc([C@H](C)[C@@H](NC(=O)C(C2CC2)C2CC2)C(=O)N2CCN(C)[C@H](C)C2)cc1F)C(C1CC1)C1CC1` [Compound 319]: the IC50 is below 0.01 µM.

Regarding `CCOC(=O)N(C)[C@@H](C)C(=O)N[C@@H](C(=O)N1CCN(C)[C@H](C)C1)[C@@H](C)c1ccc(NC(=O)[C@@H](NC(=O)c2ccnn2CC)C(C2CC2)C2CC2)c(F)c1` [Compound 210], the IC50 is below 0.01 µM.

As to `CCC(=O)N[C@@H](C(=O)N1CCN(C)CC1)[C@@H](C)c1ccc(NC(=O)[C@@H](NC(=O)c2ccnn2C)C(C2CC2)C2CC2)c(F)c1` [Compound 247], the IC50 is 0.01 to 0.1 µM.

Regarding `CCC(=O)N[C@@H](C(=O)N1CCOCC1)[C@@H](C)c1ccc(NC(=O)[C@@H](NC(=O)c2ccnn2CCF)C(C2CC2)C2CC2)c(F)c1` [Compound 251], the IC50 is 0.01 to 0.1 µM.

Take `CCC(=O)N[C@@H](C(=O)N1CCC(C)(O)CC1)[C@@H](C)c1ccc(NC(=O)[C@@H](NC(=O)c2ccnn2CCF)C(C2CC2)C2CC2)c(F)c1` [Compound 250]: the IC50 was below 0.01 µM.

As to `CCC(=O)N[C@@H](C(=O)N1CCN(C)[C@H](C)C1)[C@@H](C)c1ccc(NC(=O)[C@@H](NC(=O)c2ccnn2CC(F)(F)F)C(C2CC2)C2CC2)c(F)c1` [Compound 248], the IC50 was 0.01 to 0.1 µM.

Turning to `CCn1nccc1C(=O)N[C@H](C(=O)Nc1ccc([C@H](C)[C@@H](NC(=O)[C@H](C)OC)C(=O)N2CC[C@H](N(C)C)C2)cc1F)C(C1CC1)C1CC1` [Compound 255], the IC50 is below 0.01 µM.

As to `CCn1nccc1C(=O)N[C@H](C(=O)Nc1ccc([C@H](C)[C@@H](NC(=O)CC2CC2)C(=O)N2CCN(C)CC2)cc1F)C(C1CC1)C1CC1` [Compound 227], the IC50 is below 0.01 µM.

Regarding `CCC(=O)N[C@@H](C(=O)N1CC2(CN(C)C2)C1)[C@@H](C)c1ccc(NC(=O)[C@@H](NC(=O)c2ccnn2CC)C(C2CC2)C2CC2)c(F)c1` [Compound 238], the IC50 is 0.1 to 10 µM.

For the compound `CCC(=O)N[C@@H](C(=O)N1CCN(C)CC1)[C@@H](C)c1ccc(NC(=O)[C@@H](NC(=O)c2ccnn2C2CC2)C(C2CC2)C2CC2)c(F)c1` [Compound 230], the IC50 is 0.01 to 0.1 µM.

As for `CCC(=O)N[C@@H](C(=O)N1CC[C@@H](N(C)C)C1)[C@@H](C)c1ccc(NC(=O)[C@@H](NC(=O)c2ccnn2CC)C(C2CC2)C2CC2)c(F)c1` [Compound 242], the IC50 was 0.01 to 0.1 µM.

For `CCn1nccc1C(=O)N[C@H](C(=O)Nc1ccc([C@H](C)[C@@H](NC(=O)CC2CC2)C(=O)N2CCN(C)[C@H](C)C2)cc1F)C(C1CC1)C1CC1` [Compound 226], the IC50 is below 0.01 µM.

For `CCC(=O)N[C@@H](C(=O)N1CCN(C)C[C@@H]1C)[C@@H](C)c1ccc(NC(=O)[C@@H](NC(=O)c2ccnn2CC)C(C2CC2)C2CC2)c(F)c1` [Compound 208], the IC50 was below 0.01 µM.

In the case of `CCC(=O)N[C@@H](C(=O)N1CCN(C)[C@H](C)C1)[C@@H](C)c1ccc(NC(=O)[C@@H](NC(=O)c2ccnn2CCO)C(C2CC2)C2CC2)c(F)c1` [Compound 244], the IC50 was 0.1 to 10 µM.

Consider `CCC(=O)N[C@@H](C(=O)N1CCN(C)CC1)[C@@H](C)c1ccc(NC(=O)[C@@H](NC(=O)c2ccnn2CCO)C(C2CC2)C2CC2)c(F)c1` [Compound 243], for which the IC50 was 0.1 to 10 µM.

In the case of `CCC(=O)N[C@@H](C(=O)N1C[C@H]2CN(C)C[C@H]2C1)[C@@H](C)c1ccc(NC(=O)[C@@H](NC(=O)c2ccnn2CC)C(C2CC2)C2CC2)c(F)c1` [Compound 237], the IC50 is 0.1 to 10 µM.

As to `CCC(=O)N[C@@H](C(=O)N1C[C@@H]2C[C@H]1CN2C)[C@@H](C)c1ccc(NC(=O)[C@@H](NC(=O)c2ccnn2CC)C(C2CC2)C2CC2)c(F)c1` [Compound 235], the IC50 was 0.01 to 0.1 µM.

Regarding `CCOC(=O)N(C)[C@@H](C)C(=O)N[C@@H](C(=O)N1CCN(C)CC1)[C@@H](C)c1ccc(NC(=O)[C@@H](NC(=O)c2ccnn2CC)C(C2CC2)C2CC2)c(F)c1` [Compound 211], the IC50 was below 0.01 µM.

As for `CO[C@@H](C)C(=O)N[C@@H](C(=O)N1CCN(C)CC1)[C@@H](C)c1ccc(NC(=O)[C@@H](NC(=O)C2(F)CC2)C(C2CC2)C2CC2)c(F)c1` [Compound 272], the IC50 is 0.01 to 0.1 µM.

Turning to `CCC(=O)N[C@@H](C(=O)N1C[C@H]2CC[C@@H](C1)N2C)[C@@H](C)c1ccc(NC(=O)[C@@H](NC(=O)c2ccnn2C(C)C)C(C2CC2)C2CC2)c(F)c1` [Compound 264], the IC50 was below 0.01 µM.

As for `CCn1nccc1C(=O)N[C@H](C(=O)Nc1ccc([C@H](C)[C@@H](NC(=O)[C@H](C)OC)C(=O)N2C[C@H]3C[C@@H]2CN3C)cc1F)C(C1CC1)C1CC1` [Compound 256], the IC50 was 0.01 to 0.1 µM.

For the compound `CCC(=O)N[C@@H](C(=O)N1CCN(C)[C@H](C)C1)[C@@H](C)c1ccc(NC(=O)[C@@H](NC(=O)c2ccnn2C(C)C)C(C2CC2)C2CC2)c(F)c1` [Compound 258], the IC50 is below 0.01 µM.

With `CCc1nonc1C(=O)N[C@H](C(=O)Nc1ccc([C@H](C)[C@@H](NC(=O)COC)C(=O)N2CCN(C)CC2)cc1F)C(C1CC1)C1CC1` [Compound 206], the IC50 is below 0.01 µM.

Turning to `CCC(=O)N[C@@H](C(=O)N1CCN(C)CC1)[C@@H](C)c1ccc(NC(=O)[C@@H](NC(=O)c2ccnn2C2CC2(F)F)C(C2CC2)C2CC2)c(F)c1` (single isomer, unassigned) [Compound 233], the IC50 is 0.01 to 0.1 µM.

In the case of `CCC(=O)N[C@@H](C(=O)N1CCN(C)C(COC)C1)[C@@H](C)c1ccc(NC(=O)[C@@H](NC(=O)c2ccnn2CC)C(C2CC2)C2CC2)c(F)c1` (single isomer, unassigned) [Compound 202], the IC50 was 0.01 to 0.1 µM.

On to `CO[C@@H](C)C(=O)N[C@@H](C(=O)N1CC[C@H](N(C)C)C1)[C@@H](C)c1ccc(NC(=O)[C@@H](NC(=O)c2ccnn2C(C)C)C(C2CC2)C2CC2)c(F)c1` [Compound 262], for which the IC50 was below 0.01 µM.

With `CO[C@@H](C)C(=O)N[C@@H](C(=O)N1C[C@H]2C[C@@H]1CN2C)[C@@H](C)c1ccc(NC(=O)[C@@H](NC(=O)c2ccnn2C(C)C)C(C2CC2)C2CC2)c(F)c1` [Compound 263], the IC50 was 0.01 to 0.1 µM.

Take `CCC(=O)N[C@@H](C(=O)N1CCC[C@@H](N)C1)[C@@H](C)c1ccc(NC(=O)[C@@H](NC(=O)c2ccnn2CC)C(C2CC2)C2CC2)c(F)c1` [Compound 268]: the IC50 is 0.01 to 0.1 µM.

As for `CCc1nonc1C(=O)N[C@H](C(=O)Nc1ccc([C@H](C)[C@@H](NC(=O)N(C)C2CC2)C(=O)N2CCN(C)CC2)cc1F)C(C1CC1)C1CC1` [Compound 224], the IC50 was below 0.01 µM.

Turning to `CCC(=O)N[C@@H](C(=O)N1C[C@H]2CC[C@@H](C1)N2C)[C@@H](C)c1ccc(NC(=O)[C@@H](NC(=O)c2ccnn2CC)C(C2CC2)C2CC2)c(F)c1` [Compound 239], the IC50 was below 0.01 µM.

Take `CCC(=O)N[C@@H](C(=O)N1C[C@H]2C[C@@H](C1)N2C)[C@@H](C)c1ccc(NC(=O)[C@@H](NC(=O)c2ccnn2CC)C(C2CC2)C2CC2)c(F)c1` [Compound 241]: the IC50 was 0.01 to 0.1 µM.

Turning to `CO[C@@H](C)C(=O)N[C@@H](C(=O)N1CCN(C)CC1)[C@@H](C)c1ccc(NC(=O)[C@@H](NC(=O)c2ccnn2C(C)C)C(C2CC2)C2CC2)c(F)c1` [Compound 259], the IC50 is below 0.01 µM.

Take `CCC(=O)N[C@@H](C(=O)N1C[C@@H](C)N(C)[C@@H](C)C1)[C@@H](C)c1ccc(NC(=O)[C@@H](NC(=O)c2nonc2CC)C(C2CC2)C2CC2)c(F)c1` [Compound 205]: the IC50 was below 0.01 µM.

The assay is the same for the next values; noted with them: IL17 AA HEK-5 pIC50, HEK-Blue IL-17 reporter cells, IL-17A/A stimulation, 20 hours, SEAP readout.
As for `CCn1nccc1C(=O)N[C@H](C(=O)Nc1ccc([C@H](C)[C@@H](NC(=O)CF)C(=O)N2CCN(C)[C@H](C)C2)cc1F)C(C1CC1)C1CC1` [Compound 228], the IC50 was in the range of 0.01 to 0.1 µM.

For the next assay, the target named is T2, IL-17A/F (Homo sapiens, UniProt Q16552+Q96PD4).
T2 sequence (Q16552 24-155): T1 sequence (Q16552 24-155)
T2 sequence (Q96PD4 31-163): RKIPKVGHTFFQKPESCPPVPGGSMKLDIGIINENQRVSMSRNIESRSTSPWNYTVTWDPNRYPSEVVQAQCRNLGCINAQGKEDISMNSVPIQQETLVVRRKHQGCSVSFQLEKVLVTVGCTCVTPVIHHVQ
Description: IL-17A/F HEK-Blue Cell Assay. Type of assay: cell-based. To be noted: HEK-Blue IL-17 reporter cells, IL-17A/F stimulation, 20 hours, SEAP readout. The procedure:
as §1, with “cell-based IL-17A/F” for “cell-based IL-17A/A”, “expressed IL-17RA,” for “expressed IL-17R^A,”, “(SEAP) geneprotein.” for “(SEAP) protein.”
Compounds were titrated in DMSO and added to the cells immediately before adding IL-17A/A (Custom from R&D systems, untagged IL-17A/F+BSA as a carrier protein). The cells, compound, and IL-17A/A were then incubated for 20 hours before media was removed for SEAP analysis. The resulting inhibition curve was then analyzed using a Dotmatics screening protocol, and IC50 values were determined using a 4-parameter nonlinear fit. DMSO was added to a universal final concentration of 0.1% to optimize background.
In the case of `CCn1nccc1C(=O)N[C@H](C(=O)Nc1ccc([C@H](C)[C@@H](NC(=O)C(C)OCCOC)C(=O)N2CCN(C)CC2)cc1F)C(C1CC1)C1CC1` (single isomer, unassigned) [Compound 315], the “IL17AF HEK Blue pIC50” value is listed as “C (7>C≥5)”.

The assay is the same for the next values; noted with them: HEK-Blue IL-17 reporter cells, IL-17A/F stimulation, 20 hours, SEAP readout; read-out: IL17AF HEK Blue pIC50 (converted).
In the case of `CCn1nccc1C(=O)N[C@H](C(=O)Nc1ccc([C@H](C)[C@@H](NC(=O)C(C2CC2)C2CC2)C(=O)N2CCN(C)[C@H](C)C2)cc1F)C(C1CC1)C1CC1` [Compound 319], the IC50 is 0.01 to 0.1 µM.

The values are drawn from US20250177383A1, “DI-CYCLOPROPYL BASED IL-17A MODULATORS AND USES THEREOF” (DICE ALPHA, INC., priority 2022, published 2025).
